Reference: article PMC3335822 (PLoS ONE, 2012)

Assays:
mouse aortic rings = assay: Mouse aortic ring assay (ex vivo sprouting angiogenesis, VEGF-stimulated); conditions: 5 μM, 10 days
Method: The preparation of rat collagen and the aortic ring assay were carried out as previously described, [50]. Mice were 4 to 6 week old female C57BL/6, and aortic ring explants were cultured at 37°C in a humidified incubator under a 5% CO2 atmosphere.
Each inhibitor was serially diluted (between 0.25 mM and 7.5 mM) to stocks of 1000× the working concentrations in sterile 100% DMSO in order to achieve an equal final concentration of DMSO (0.1% v/v) in all culture conditions. For the experiments, the compounds were diluted in EBM containing 2.5% FBS, penicillin/streptomycin and 20 ng/ml VEGF165 (R&D Systems, Minneapolis, MN). Each compound was applied from the first day of culture over a 10-day period with medium change every two days. In all experiments, the vehicle (DMSO, 0.1%) was used as control. The sprouting density was derived from counting the number of branches per ring, and the extent of angiogenic sprouting was estimated by measuring the total surface area covered by the vessels.

zebrafish embryos = assay: Analysis of zebrafish vasculature, Tg(kdrl:EGFP) embryos; type: in vivo; conditions: exposure from about 5 hpf, analysis at 28–30 hpf
Method: Tg(kdrl:EGFP)^s843 zebrafish line was used for vascular analysis. Embryos were maintained in fish water until the 50% epiboly stage (5.25 hpf) and were transferred into wells of 24-well plate containing the inhibitors in fish water. All incubation was performed at 28.5°C. The analysis for vascular defects was performed at the 28–30 hpf stages, and embryos were imaged using a fluorescence microscope.

MCF10A-EYA2 cells = assay: Transwell migration of MCF10A cells over-expressing EYA2; type: cell-based; conditions: 7.5 μM
Method: (§1) Human umbilical vein endothelial cells (HUVECs) were purchased from Lonza (Walkersville, MD) and maintained in the endothelial cell growth medium (PromoCell, Heidelberg, Germany), under a 5% CO2 atmosphere. MCF10A cells from ATCC were stably transfected with either pcDNA 3.2/V5-DEST (vector control), V5-EYA2 or V5-EYA2(mut). Transwell migration experiments were performed as previously described.

HUVECs [1] = assay: HUVEC transwell migration; type: cell-based, human; conditions: 5 μM
Method: as §1

HUVECs [2] = assay: HUVEC tubulogenesis assay on Matrigel; type: cell-based, human; conditions: up to 7.5 μM
Method: Tubulogenesis assays were performed in 15-well micro-slide (ibidi LLC, Verona WI), using growth factor-reduced matrigel (BD Bioscience, Billerica, MA). The matrix was prepared by loading 10 μl of matrigel in each micro-slide well and allowing it to solidify for 30 minutes at 37°C. HUVECs were trypsinized and resuspended at 100,000 cell/ml in EBM +2.5% FBS. 50 μl (5,000 cell) were loaded on top of the solidified matrigel and the preparation was incubated for 20 hours at 37°C in a humidified incubator in a 5% CO2 atmosphere. Bright field images were taken using an inverted microscope at 2.5× magnification, which allowed imaging of the whole well in two pictures that were later merged in Photoshop. Tubular structures were traced and counted using NeuroJ (NIH, USA). In experiments with inhibitor, the inhibitor was added to the cell suspension before loading. Each sample was loaded in triplicate, and each treatment was repeated for reproducibility.

PTP1B = target: T1, PTP1B (Homo sapiens, UniProt P18031); assay: pNPP hydrolysis by PTP1B; type: biochemical; conditions: for IC50: substrate pNPP
T1 construct: made in house
T1 sequence (P18031 1-435): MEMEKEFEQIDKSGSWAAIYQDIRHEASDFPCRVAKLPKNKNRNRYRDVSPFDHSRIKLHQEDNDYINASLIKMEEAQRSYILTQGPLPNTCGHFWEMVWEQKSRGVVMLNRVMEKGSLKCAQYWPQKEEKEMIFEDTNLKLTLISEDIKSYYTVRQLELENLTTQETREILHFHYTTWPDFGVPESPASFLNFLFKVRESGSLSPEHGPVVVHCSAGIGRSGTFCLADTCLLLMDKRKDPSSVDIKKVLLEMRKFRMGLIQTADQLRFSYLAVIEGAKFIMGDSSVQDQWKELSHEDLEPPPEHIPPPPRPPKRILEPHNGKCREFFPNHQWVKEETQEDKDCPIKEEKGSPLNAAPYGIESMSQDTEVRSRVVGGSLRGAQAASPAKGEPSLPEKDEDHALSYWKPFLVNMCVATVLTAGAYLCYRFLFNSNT
Method: The catalytic domain of human Eyes Absent 2 was similarly sub-cloned as a poly-histidine fusion construct in the vector pDEST-527. Fusion protein was purified by Ni-NTA chromatography and followed by size-exclusion chromatography over a Superdex-75 column. The relative purity of protein samples was determined using SDS-PAGE. PTP1B was purified as described previously.
(§2) Compounds were dissolved in DMSO and diluted as needed. […] Reactions were incubated at 30°C for 30 minutes and quenched with 100 mM EDTA pH 10. IC50 values were then calculated directly from regression curves using PRISM. All reported values are the mean of two independent experiments.

[3] = cited from earlier work
Eya3(ED) = target: T2, Eya3(ED) (Mus musculus, UniProt P97480); assay: pNPP hydrolysis by the catalytic domain of Eya3; type: biochemical; conditions: substrate pNPP 3.4 mM, pH 6, 30°C, 30 minutes
T2 construct: The catalytic domain (ED) of mouse Eyes Absent 3 (Eya3(223–510)) was purified; made in house
T2 sequence (P97480 223-510): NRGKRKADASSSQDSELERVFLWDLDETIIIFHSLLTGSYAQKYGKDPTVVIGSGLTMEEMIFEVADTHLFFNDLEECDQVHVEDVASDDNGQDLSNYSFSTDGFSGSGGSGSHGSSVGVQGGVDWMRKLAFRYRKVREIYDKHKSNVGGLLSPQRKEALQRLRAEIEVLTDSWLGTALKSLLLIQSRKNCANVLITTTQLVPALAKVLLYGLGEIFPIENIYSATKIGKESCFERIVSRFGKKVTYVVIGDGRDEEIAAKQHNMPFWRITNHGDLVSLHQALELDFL
Description: (§3) The catalytic domain (ED) of mouse Eyes Absent 3 (Eya3(223–510)) was purified as described before. Human Eyes Absent 3 isoform 2 (representing the major species identified in human cell lines by mass spectrometry and residues 127–573 of NM_001990, isoform 1) was sub-cloned into pDEST565 to express a poly-histidine- Glutathione-S-transferase (His-GST) tagged fusion protein with a TVMV protease site. The protein was purified by glutathione-S-transferase affinity chromatography followed by TVMV cleavage, Ni-NTA chromatography, and finally size exclusion chromatography.
The NCI Diversity Set II was obtained from the NCI in 96-well trays from the NIH Molecular Libraries Program and stored as 10 mM stocks in DMSO. An initial manual screen was conducted using the previously described p-nitrophenylphosphate assay and mouse Eya3(223–510) in a reaction mixture containing 20 mM MES pH 6, 2 mM MgCl2, 125 μM inhibitor, 3.4 mM para-nitrophenol phosphate (pNPP) and 0.01 μg/µL enzyme.
as §2

human EYA3 = target: T3, human EYA3 (Homo sapiens, UniProt Q99504); assay: pNPP hydrolysis by full-length EYA3; type: biochemical; conditions: full-length human EYA3, substrate pNPP
T3 construct: residues 127–573 of NM_001990, isoform 1; His-GST (poly-histidine, glutathione-S-transferase) with TVMV protease site (cleaved yes); made in house
T3 sequence (Q99504 127-573): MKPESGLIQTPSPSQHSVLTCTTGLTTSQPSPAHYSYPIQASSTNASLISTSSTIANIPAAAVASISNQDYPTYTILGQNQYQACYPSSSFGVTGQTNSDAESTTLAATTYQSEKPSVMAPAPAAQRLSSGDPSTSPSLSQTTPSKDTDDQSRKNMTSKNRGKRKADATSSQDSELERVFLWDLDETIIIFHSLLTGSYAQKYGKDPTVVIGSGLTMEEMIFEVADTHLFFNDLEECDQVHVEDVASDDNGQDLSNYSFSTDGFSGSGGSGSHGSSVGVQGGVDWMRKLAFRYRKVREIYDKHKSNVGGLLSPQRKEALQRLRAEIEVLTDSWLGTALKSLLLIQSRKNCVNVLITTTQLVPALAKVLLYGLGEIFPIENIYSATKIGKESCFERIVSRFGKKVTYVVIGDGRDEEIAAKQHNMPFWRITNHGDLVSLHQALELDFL
Description: as §3, with “chromatography. […]” for “chromatography.”
as §2

| SMILES | IC50 (PTP1B) [µM] | IC50 (Eya3(ED)) [µM] | IC50 (human EYA3) [µM] | selectivity EYA3 versus PTP1B, in words (PTP1B; pNPP hydrolysis) | effect on sprouting of aortic rings (mouse aortic rings) | effect on the developing vasculature (zebrafish embryos) | effect on migration of MCF10A(EYA2) cells (MCF10A-EYA2 cells) | effect on HUVEC cell motility (HUVECs [1]) | effect on tubulogenesis, in words (HUVECs [2]) | half-life [3] [h] |
| --- | --- | --- | --- | --- | --- | --- | --- | --- | --- | --- |
| CCc1oc2cc(O)ccc2c1C(=O)c1cc(Br)c(O)c(Br)c1 [6-hydroxybenzbromarone] |  |  |  |  |  |  |  |  |  | 30 |
| COc1ccc(CC(=O)c2ccc(O)cc2O)cc1 [Compound 1h] | > 150 | > 150 | > 150 |  |  |  |  |  |  |  |
| CC(=O)c1c(C)oc2ccc(O)cc12 [Compound 1g] | > 150 | > 150 | > 150 |  |  |  |  |  |  |  |
| CC(=O)c1cc(Br)c(O)c(Br)c1O [Compound 1i] | > 150 | > 150 | > 150 |  |  |  |  |  |  |  |
| COc1ccc(C(=O)c2coc3ccc(O)cc23)cc1 [Compound 1e] | > 150 | > 150 | > 150 |  |  |  |  |  |  |  |
| CCCCC(=O)c1ccc(O)cc1 [Compound 1j] | > 150 | > 150 | > 150 |  |  |  |  |  |  |  |

Further lines, with some results ahead:

| IC50 (PTP1B) [µM] | IC50 (Eya3(ED)) [µM] | IC50 (human EYA3) [µM] | selectivity EYA3 versus PTP1B, in words (PTP1B; pNPP hydrolysis) | SMILES | effect on sprouting of aortic rings (mouse aortic rings) | effect on the developing vasculature (zebrafish embryos) | effect on migration of MCF10A(EYA2) cells (MCF10A-EYA2 cells) | effect on HUVEC cell motility (HUVECs [1]) | effect on tubulogenesis, in words (HUVECs [2]) | half-life [3] [h] |
| --- | --- | --- | --- | --- | --- | --- | --- | --- | --- | --- |
| 71.4 |  |  |  | CCCCc1oc2ccccc2c1C(=O)c1ccc(O)cc1 [Compound 1b] | shorter sprouts and significantly lower microvascular density | reduced the number of intersegmental vessels, but were less potent | significantly inhibited cell migration | attenuated HUVEC cell motility | effective only at the highest concentrations tested (7.5 μM) |  |
| 11.8 | > 150 | > 150 | preferentially inhibited PTP1B | O=C(c1cc2ccccc2o1)c1coc2ccc(O)cc12 [Compound 1c] | negligible effect | no effect on the vasculature | had no effect on cell motility |  |  |  |
| > 150 | > 150 | > 150 |  | O=C(c1ccc(F)cc1)c1coc2ccc(O)cc12 [Compound 1d] |  |  |  |  |  |  |
| 102 | > 150 | > 150 |  | COc1ccc(OC)c(C(=O)c2coc3ccc(O)cc23)c1 [Compound 1f] |  |  |  |  |  |  |
